Values joined by “and” are separate entries in the source; they are usually repeats but may differ in a detail not shown here. Equal values may be shown once. Inconclusive results and toxic doses are left out.
Test system: P388 leukemia ip, CD2F1 mice, survival T/C
Experiment: NCI In Vivo Anticancer Drug Screen. Data for tumor model P388 Leukemia (intraperitoneal) in CD2F1 (CDF1) mice
Conditions: endpoint: median survival time, higher = longer survival
In short: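 Mice carrying the transplanted tumor received test compound or vehicle. Survival was recorded in each group, and the value is the treated-group measurement divided by that of the vehicle-treated control group.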

[1] = dose: 50.0 mg/kg/injection, schedule: Q01DX009 (ip), vehicle: Klucel (hydroxypropylcellulose) (HPC)
[2] = dose: 100.0 mg/kg/injection, schedule: Q01DX009 (ip), vehicle: Klucel (hydroxypropylcellulose) (HPC)
[3] = dose: 200.0 mg/kg/injection, schedule: Q01DX009 (ip), vehicle: Klucel (hydroxypropylcellulose) (HPC)
[4] = dose: 50.0 mg/kg/injection, schedule: Q01DX005 (ip), vehicle: Klucel (hydroxypropylcellulose) (HPC)
[5] = dose: 100.0 mg/kg/injection, schedule: Q01DX005 (ip), vehicle: Klucel (hydroxypropylcellulose) (HPC)
[6] = dose: 200.0 mg/kg/injection, schedule: Q01DX005 (ip), vehicle: Klucel (hydroxypropylcellulose) (HPC)
[7] = dose: 50.0 mg/kg/injection, schedule: Q01DX009 (ip), vehicle: saline with Tween-80
[8] = dose: 100.0 mg/kg/injection, schedule: Q01DX009 (ip), vehicle: saline with Tween-80
[9] = dose: 200.0 mg/kg/injection, schedule: Q01DX009 (ip), vehicle: saline with Tween-80
[10] = dose: 60.0 mg/kg/injection, schedule: Q01DX005 (ip), vehicle: saline with Tween-80
[11] = dose: 120.0 mg/kg/injection, schedule: Q01DX005 (ip), vehicle: saline with Tween-80
[12] = dose: 50.0 mg/kg/injection, schedule: Q01DX005 (ip), vehicle: saline with Tween-80
[13] = dose: 100.0 mg/kg/injection, schedule: Q01DX005 (ip), vehicle: saline with Tween-80
[14] = dose: 200.0 mg/kg/injection, schedule: Q01DX005 (ip), vehicle: saline with Tween-80

CC[PH+](CC)CC[S-].CC[PH+](CC)CC[S-].[Au+].[Au+]
T/C (dose: 2.5 mg/kg/injection, schedule: Q01DX009 (ip), vehicle: Klucel (hydroxypropylcellulose) (HPC)): 109 % of control | T/C (dose: 5.0 mg/kg/injection, schedule: Q01DX009 (ip), vehicle: Klucel (hydroxypropylcellulose) (HPC)): 114 % of control and 115 % of control | T/C (dose: 20.0 mg/kg/injection, schedule: Q01DX009 (ip), vehicle: Klucel (hydroxypropylcellulose) (HPC)): 153 % of control | T/C (dose: 40.0 mg/kg/injection, schedule: Q01DX009 (ip), vehicle: Klucel (hydroxypropylcellulose) (HPC)): 87 % of control

COC(=O)c1ccccc1NC(c1ccccn1)c1ccc2cccnc2c1O (configuration not stated)
T/C (dose: 50.0 mg/kg/injection, schedule: Q01DX009 (ip), vehicle: DMSO): 111 % of control | T/C [1]: 109 % of control | T/C (dose: 100.0 mg/kg/injection, schedule: Q01DX009 (ip), vehicle: DMSO): 116 % of control | T/C [2]: 94 % of control | T/C [3]: 106 % of control | T/C (dose: 400.0 mg/kg/injection, schedule: Q01DX009 (ip), vehicle: Klucel (hydroxypropylcellulose) (HPC)): 100 % of control

Cc1ccc(S(=O)(=O)N2OC2c2ccccc2C)cc1 (configuration not stated)
T/C [1]: 107 % of control | T/C [2]: 106 % of control | T/C [3]: 103 % of control

C#C/C=C/CC1OC(C(Br)CC)/C=C\CCC1Cl (configuration not stated)
T/C (dose: 2.0 mg/kg/injection, schedule: Q01DX009 (ip), vehicle: Klucel (hydroxypropylcellulose) (HPC)): 94 % of control | T/C (dose: 4.0 mg/kg/injection, schedule: Q01DX009 (ip), vehicle: Klucel (hydroxypropylcellulose) (HPC)): 98 % of control | T/C (dose: 8.0 mg/kg/injection, schedule: Q01DX009 (ip), vehicle: Klucel (hydroxypropylcellulose) (HPC)): 103 % of control | T/C (dose: 16.0 mg/kg/injection, schedule: Q01DX009 (ip), vehicle: Klucel (hydroxypropylcellulose) (HPC)): 94 % of control

CN1C(=O)/C(=C2\SC(=O)N(CN3CCCCC3)C2=O)c2ccccc21
T/C [4]: 92 % of control | T/C [5]: 100 % of control | T/C [6]: 99 % of control

CC(C)(C)c1ccc(C2=NNC(C(F)(F)F)=NN2)cc1
T/C [7]: 110 % of control | T/C [8]: 104 % of control | T/C [9]: 119 % of control

Nc1nc(-c2ccccn2)cc2ccccc12
T/C [10]: 105 % of control | T/C [11]: 100 % of control

O=NN(CCCCl)C(=O)NC1CCCCC1
T/C (dose: 12.5 mg/kg/injection, schedule: Q01DX009 (ip), vehicle: saline): 86 % of control | T/C (dose: 25.0 mg/kg/injection, schedule: Q01DX009 (ip), vehicle: saline): 98 % of control | T/C (dose: 50.0 mg/kg/injection, schedule: Q01DX009 (ip), vehicle: saline): 104 % of control | T/C (dose: 100.0 mg/kg/injection, schedule: Q01DX009 (ip), vehicle: saline): 107 % of control

CCN(CC)CCCC(C)Sc1ccnc2cc(Cl)ccc12 (configuration not stated)
T/C [12]: 95 % of control | T/C [13]: 101 % of control | T/C [14]: 106 % of control

CCc1nc(Cc2ccccc2)nc2c1nc(-c1ccccc1)n2Nc1ccccc1
T/C (dose: 100.0 mg/kg/injection, schedule: Q01DX001 (ip), vehicle: saline with Tween-80): 92 % of control | T/C (dose: 200.0 mg/kg/injection, schedule: Q01DX001 (ip), vehicle: saline with Tween-80): 98 % of control | T/C (dose: 400.0 mg/kg/injection, schedule: Q01DX001 (ip), vehicle: saline with Tween-80): 92 % of control

CC(=O)OCC(Cn1ccnc1[N+](=O)[O-])OC(C)=O (configuration not stated)
T/C (dose: 12.5 mg/kg/injection, schedule: Q01DX009 (ip), vehicle: distilled water + Tween-80): 100 % of control | T/C (dose: 25.0 mg/kg/injection, schedule: Q01DX009 (ip), vehicle: distilled water + Tween-80): 101 % of control | T/C (dose: 50.0 mg/kg/injection, schedule: Q01DX009 (ip), vehicle: distilled water + Tween-80): 100 % of control | T/C (dose: 100.0 mg/kg/injection, schedule: Q01DX009 (ip), vehicle: distilled water + Tween-80): 111 % of control | T/C (dose: 200.0 mg/kg/injection, schedule: Q01DX009 (ip), vehicle: distilled water + Tween-80): 108 % of control

O=C1OC(c2ccccc2Br)=N/C1=C/c1ccccc1
T/C [4]: 99 % of control | T/C [5]: 91 % of control | T/C [6]: 98 % of control

Cc1nc2ccccc2c2c1C(=O)c1ccccc1-2
T/C (dose: 100.0 mg/kg/injection, schedule: Q04DX002 (ip), vehicle: Klucel (hydroxypropylcellulose) (HPC)): 96 % of control | T/C (dose: 200.0 mg/kg/injection, schedule: Q04DX002 (ip), vehicle: Klucel (hydroxypropylcellulose) (HPC)): 89 % of control | T/C (dose: 400.0 mg/kg/injection, schedule: Q04DX002 (ip), vehicle: Klucel (hydroxypropylcellulose) (HPC)): 89 % of control

CC(C)Cc1c(O)c(N=Nc2ccc(C(=O)O)c(O)c2)c2ccccc2c1O
T/C (dose: 100.0 mg/kg/injection, schedule: Q04DX002 (ip), vehicle: distilled water + alcohol): 99 % of control | T/C (dose: 200.0 mg/kg/injection, schedule: Q04DX002 (ip), vehicle: distilled water + alcohol): 97 % of control

O=C(O)C(=O)O.O=C([O-])C(=O)O.O=C([O-])C(=O)O.[Fe+3].[K+]
T/C (dose: 30.0 mg/kg/injection, schedule: Q01DX005 (ip), vehicle: saline): 100 % of control | T/C (dose: 60.0 mg/kg/injection, schedule: Q01DX005 (ip), vehicle: saline): 99 % of control

Oc1ccc(N=Nc2c(-c3ccccc3)nn(C(=S)S)c2-c2ccccc2)cc1
T/C [12]: 103 % of control | T/C [13]: 102 % of control | T/C [14]: 101 % of control

Cc1nn(-c2ccccc2)nc1CCl
T/C [4]: 101 % of control | T/C [5]: 99 % of control | T/C [6]: 95 % of control

O=c1cc(O)n2ncnc2[nH]1
T/C (dose: 25.0 mg/kg/injection, schedule: Q01DX009 (ip), vehicle: saline with Tween-80): 101 % of control | T/C [7]: 104 % of control | T/C [8]: 104 % of control | T/C [9]: 99 % of control

CC1OS(=O)(=O)C=C1Br (configuration not stated)
T/C (dose: 100.0 mg/kg/injection, schedule: Q04DX003 (ip), vehicle: saline with Tween-80): 108 % of control | T/C (dose: 200.0 mg/kg/injection, schedule: Q04DX003 (ip), vehicle: saline with Tween-80): 97 % of control | T/C (dose: 400.0 mg/kg/injection, schedule: Q04DX003 (ip), vehicle: saline with Tween-80): 89 % of control

O=[N+]([O-])O.[Cl-].[Cl-].[NH-]CC[NH-].[NH-]CC[NH-].[Rh+3]
T/C (dose: 12.5 mg/kg/injection, schedule: Q04DX003 (ip), vehicle: distilled water + Tween-80): 106 % of control | T/C (dose: 25.0 mg/kg/injection, schedule: Q04DX003 (ip), vehicle: distilled water + Tween-80): 99 % of control | T/C (dose: 50.0 mg/kg/injection, schedule: Q04DX003 (ip), vehicle: distilled water + Tween-80): 108 % of control | T/C (dose: 100.0 mg/kg/injection, schedule: Q04DX003 (ip), vehicle: distilled water + Tween-80): 111 % of control | T/C (dose: 200.0 mg/kg/injection, schedule: Q04DX003 (ip), vehicle: distilled water + Tween-80): 102 % of control

CC(C)=Cc1cc(CCC/C(C)=C/Cc2c(O)cc(C)c(C(=O)O)c2O)co1
T/C (dose: 4.5 mg/kg/injection, schedule: Q01DX005 (ip), vehicle: Klucel (hydroxypropylcellulose) (HPC)): 100 % of control | T/C (dose: 9.0 mg/kg/injection, schedule: Q01DX005 (ip), vehicle: Klucel (hydroxypropylcellulose) (HPC)): 91 % of control | T/C (dose: 18.0 mg/kg/injection, schedule: Q01DX005 (ip), vehicle: Klucel (hydroxypropylcellulose) (HPC)): 92 % of control | T/C (dose: 36.0 mg/kg/injection, schedule: Q01DX005 (ip), vehicle: Klucel (hydroxypropylcellulose) (HPC)): 98 % of control | T/C [4]: 105 % of control | T/C (dose: 72.0 mg/kg/injection, schedule: Q01DX005 (ip), vehicle: Klucel (hydroxypropylcellulose) (HPC)): 88 % of control | T/C [5]: 107 % of control | T/C [6]: 98 % of control

CC(C)c1c(CN(C)C(C)Cc2ccccc2)n(C)n(-c2ccccc2)c1=O (configuration not stated)
T/C [10]: 108 % of control | T/C [11]: 105 % of control | T/C (dose: 240.0 mg/kg/injection, schedule: Q01DX005 (ip), vehicle: saline with Tween-80): 98 % of control

O=C1OC(CCc2ccccc2O)c2ccccc21 (configuration not stated)
T/C [12]: 89 % of control | T/C [13]: 99 % of control | T/C [14]: 93 % of control

CCCCCCCCC1(OCCCS(=O)(=O)O)COc2ccccc2OCCOCCOc2ccccc2OC1
T/C (dose: 30.0 mg/kg/injection, schedule: Q01DX005 (ip), vehicle: saline with Tween-80): 96 % of control | T/C [10]: 94 % of control

CC(C)c1ncc(CO)n1Cc1c(Cl)cccc1Cl
T/C [1]: 100 % of control | T/C [2]: 102 % of control | T/C [3]: 100 % of control
